# Structures can show the parent of a compound that is named as a salt.
# Molecular target: T1, human recombinant KDM1A (LSD1)/CoRest (Homo sapiens, UniProt O60341)
# T1 construct: made in house; host or cells: E. coli
# Test: Assay of enzyme inhibition of KDM1A (LSD1), Amplex UltraRed/peroxidase coupled
# Format: biochemical
# Settings: 15 min preincubation, 4.5 μM mono-methylated H3-K4 peptide, range classes, read-out: IC50 [μM], KDM1A inhibition assay
# Experimental: The experiments were performed using a mono-methylated H3-K4 peptide containing 21 amino acids (custom synthesis done by Thermo Scientific) as substrate and in a 50 mM TRIS, pH 8, 0.05 mg/ml BSA buffer.
# The demethylase activity was estimated under aerobic conditions and at RT by measuring the release of H2O2 produced during the catalytic process by the Amplex® UltraRed detection system coupled with peroxidase assay. Briefly, a fixed amount of KDM1A/CoRest complex was incubated at RT for 15 minutes in the absence and/or the presence of various concentrations of inhibitor (e.g. from 0 to 100 μM, depending on the inhibitor strength) and of Amplex® UltraRed detection system coupled with peroxidase assay. The inhibitors were tested twice in duplicates at each concentration. […] The conversion of the Amplex® Ultra Red reagent to resorufin was monitored in continuous by fluorescence (excitation at 540 nm, emission at 590 nm) using a microplate reader (Infinite 200, Tecan). Arbitrary units were used to measure the level of H2O2 produced in the absence and/or in the presence of inhibition. The maximum demethylase activity of KDM1A/CoRest was obtained in the absence of inhibitors and corrected for background fluorescence in the absence of KDM1A/CoRest. The IC50 was calculated using GraphPad Software.
row,Structure (SMILES),IC50 [µM]
1,"CC[C@@]1(N)C[C@H]1c1ccc(NC(=O)c2ccc(N3CCN(C)CC3)cc2)c(F)c1 (relative stereo) [Example A-96, N-[4-[trans-2-amino-2-ethyl-cyclopropyl]-2-fluoro-phenyl]-4-(4-methylpiperazin-1-yl)benzamide 2,2,2-trifluoroacetic acid]",0.1 to 1
2,"CC[C@@]1(N)C[C@H]1c1ccc(NC(=O)c2ccc(C3CCN(C)CC3)cc2)cc1 (relative stereo) [Example A-100, N-[4-[trans-2-amino-2-ethyl-cyclopropyl]phenyl]-4-(1-methyl-4-piperidyl)benzamide 2,2,2-trifluoroacetic acid]",< 0.1
3,"CC[C@@]1(N)C[C@H]1c1ccc(NC(=O)c2ccc(-c3ccncc3)cc2)cc1 (relative stereo) [Example A-102, N-[4-(trans-2-amino-2-ethyl-cyclopropyl]phenyl)-4-(4-pyridyl) benzamide dihydrochloride]",< 0.1
4,"N[C@]1(c2ccccc2)C[C@H]1c1ccc(NC(=O)c2cccc(Cl)c2)cc1 (relative stereo) [Example A-103, N-[4-(trans-2-amino-2-phenyl-cyclopropyl]phenyl]-3-chloro-benzamide hydrochloride]",< 0.1
5,"N[C@]1(c2ccccc2)C[C@H]1c1ccc(NC(=O)Cc2cccc3ccccc23)cc1 (relative stereo) [Example A-104, N-[4-(trans-2-amino-2-phenyl-cyclopropyl)phenyl]-2-(1-naphthyl) acetamide hydrochloride]",< 0.1
6,"N[C@]1(c2ccccc2)C[C@H]1c1ccc(NC(=O)Cc2ccccc2)cc1 (relative stereo) [Example A-105, N-[4-(trans-2-amino-2-phenyl-cyclopropyl)phenyl]-2-phenyl-acetamide hydrochloride]",< 0.1
7,"N[C@]1(c2ccccc2)C[C@H]1c1ccc(NC(=O)c2cccc(-c3ccccc3)c2)cc1 (relative stereo) [Example A-106, N-[4-(trans-2-amino-2-phenyl-cyclopropyl)phenyl]-3-phenyl-benzamide 2,2,2-trifluoroacetic acid]",< 0.1
8,"N[C@]1(c2ccccc2)C[C@H]1c1ccc(NC(=O)Cc2ccc3ccccc3c2)cc1 (relative stereo) [Example A-107, N-[4-(trans-2-amino-2-phenyl-cyclopropyl)phenyl]-2-(2-naphthyl) acetamide 2,2,2-trifluoroacetic acid]",< 0.1
9,"N[C@]1(c2ccccc2)C[C@H]1c1ccc(NC(=O)c2ccncc2)cc1 (relative stereo) [Example A-108, N-[4-(trans-2-amino-2-phenyl-ccyclopropyl)phenyl] pyridine-4-carboxamide dihydrochloride]",< 0.1
10,"CN1CCC(c2ccc(C(=O)Nc3ccc([C@@H]4C[C@]4(N)c4ccccc4)cc3)cc2)CC1 (relative stereo) [Example A-109, N-[4-(trans-2-amino-2-phenyl-cyclopropyl]phenyl)-4-(1-methyl-4-piperidyl) benzamide dihydrochloride]",< 0.1
11,"CN1CCN(c2ccc(C(=O)Nc3ccc([C@@H]4C[C@]4(N)c4ccccc4)cc3)cc2)CC1 (relative stereo) [Example A-110, N-[4-(trans-2-amino-2-phenyl-cyclopropyl)phenyl]-4-(4-methylpiperazin-1-yl)benzamide hydrochloride]",< 0.1
12,"N[C@]1(c2ccccc2)C[C@H]1c1ccc(NC(=O)c2cccc(N3CCOC3=O)c2)cc1 (relative stereo) [Example A-111, N-[4-(trans-2-amino-2-phenyl-cyclopropyl)phenyl]-3-(2-oxooxazolidin-3-yl)benzamide hydrochloride]",< 0.1
13,"N[C@]1(CCc2ccccc2)C[C@H]1c1ccc(NC(=O)c2ccncc2)cc1 (relative stereo) [Example A-112, N-[4-(trans-2-amino-2-phenethyl-cyclopropyl)phenyl] pyridine-4-carboxamide hydrochloride]",< 0.1
14,"CN[C@]1(C)C[C@H]1c1ccccc1 (relative stereo) [Example C-29, trans-N,1-dimethyl-2-phenyl-cyclopropanamine hydrochloride]",1 to 5

# Other lines, results leading:
row,IC50 [µM],Structure (SMILES)
1,0.1 to 1,"CC[C@@]1(N)C[C@H]1c1ccc(NC(=O)c2ccc(NCCO)cc2)cc1 (relative stereo) [Example A-120, N-[4-(trans-2-amino-2-ethyl-cyclopropyl]phenyl)-4-(2-hydroxyethylamino)benzamide hydrochloride]"
2,0.1 to 1,"CC[C@@]1(N)C[C@H]1c1ccccc1-n1cc(-c2ccccc2)nn1 (relative stereo) [Example A-125, trans 1-ethyl-2-[2-(4-phenyltriazol-1-yl)phenyl]cyclopropan amine hydrochloride]"
3,0.1 to 1,"COc1cccc([C@@H]2C[C@]2(N)Cc2ccccc2)c1 (relative stereo) [Example A-129, trans 1-Benzyl-2-(3-methoxyphenyl)cyclopropanamine hydrochloride]"
4,0.1 to 1,"CC[C@@]1(N)C[C@H]1c1cccc(N2CCN(c3ccccc3)C2=O)c1 (relative stereo) [Example A-130, 1-[3-[(trans-2-amino-2-ethyl-cyclopropyl]phenyl]-3-phenyl-imidazolidin-2-one hydrochloride]"
5,< 0.1,"CC[C@@]1(N)C[C@H]1c1ccc(-n2cc(-c3ccccc3)nn2)cc1 (relative stereo) [Example A-131, trans-1-Ethyl-2-[4-(4-phenyltriazol-1-yl)phenyl]cyclopropanamine hydrochloride]"
6,1 to 5,"N[C@]1(CNC2CC2)C[C@H]1c1ccccc1 (relative stereo) [Example B-4, trans 1-[(cyclopropylamino)methyl]-2-phenyl-cyclopropanamine dihydrochloride]"
7,1 to 5,"CN1CCN(C[C@@]2(N)C[C@H]2c2ccccc2)CC1 (relative stereo) [Example B-5, trans-1-[(4-methylpiperazine-1-yl)methyl]-2-phenyl-cyclopropanamine trihydrochloride]"
8,0.1 to 1,"CC[C@@]1(NCC(=O)N2CCN(C)CC2)C[C@H]1c1ccccc1 (relative stereo) [Example C-6, trans-2-[[(1-ethyl-2-phenyl-cyclopropyl]amino]-1-(1-methylpiperazin-1-yl)ethanone trifluoroacetate]"
9,1 to 5,"CC[C@@]1(NCc2ccccc2)C[C@H]1c1ccccc1 (relative stereo) [Example C-13, trans-N-benzyl-1-ethyl-2-phenyl-cyclopropanamine hydrochloride]"
10,0.1 to 1,"C[C@@]1(NCc2cnc(N)nc2)C[C@H]1c1ccccc1 (relative stereo) [Example C-19, 5-{[(trans-1-methyl-2-phenyl-cyclopropyl)amino]methyl} pyrimidin-2-amine dihydrochloride]"
11,1 to 5,"COc1ncccc1CN[C@]1(C)C[C@H]1c1ccccc1 (relative stereo) [Example C-20, trans-N-[(2-methoxy-3-pyridyl)methyl]-1-methyl-2-phenyl-cyclopropanamine]"
12,0.1 to 1,"C[C@@]1(NCc2ccc3c(c2)OCCO3)C[C@H]1c1ccccc1 (relative stereo) [Example C-21, trans-N-(2,3-dihydro-1,4-benzodioxin-6-ylmethyl)-1-methyl-2-phenyl-cyclopropanamine 2,2,2-trifluoroacetic acid]"
13,0.1 to 1,"CN1CCN(C(=O)CN[C@]2(c3ccccc3)C[C@H]2c2ccccc2)CC1 (relative stereo) [Example C-23, 2-[[trans-1,2-diphenylcyclopropyl]amino]-1-(4-methylpiperazin-1-yl)ethanone dihydrochloride]"
14,< 0.1,"CN1CCN(C(=O)CN[C@]2(C)C[C@H]2c2ccccc2)CC1 (relative stereo) [Example C-27, 2-[[trans-1-methyl-2-phenyl-cyclopropyl]amino]-1-(4-methylpiperazin-1-yl)ethanone dihydrochloride]"
15,1 to 5,"CN1CCN(C(=O)CN[C@@]2(C)C[C@H]2c2ccccc2)CC1 (relative stereo) [Example C-28, 2-[[cis-1-methyl-2-phenyl-cyclopropyl]amino]-1-(4-methylpiperazin-1-yl)ethanone dihydrochloride]"
16,0.1 to 1,"CC[C@@]1(NCCN2CCCCC2)C[C@H]1c1ccccc1 (relative stereo) [Example C-31, trans-1-Ethyl-2-phenyl-N-[2-(1-piperidyl)ethyl]cyclopropanamine dihydrochloride]"
17,0.1 to 1,"C[C@@]1(NCc2nnc(N)o2)C[C@H]1c1ccccc1 (relative stereo) [Example C-32, 5-[[[trans-1-methyl-2-phenyl-cyclopropyl]amino]methyl]-1,3,4-oxadiazol-2-amine]"
18,0.1 to 1,"CC(=O)Nc1ccc([C@@]2(N)C[C@H]2c2ccccc2)cc1 (relative stereo) [Example D-6, N-[4-[trans-1-amino-2-phenyl-cyclopropyl]phenyl]acetamide hydrochloride]"
19,< 0.1,"N[C@]1(Cc2ccc3ccccc3c2)C[C@H]1c1ccc(-n2cc(-c3cccc(NC(=O)OCc4ccccc4)c3)nn2)cc1 [Example A-123, benzyl N-[3-[1-[4-[2-amino-2-(2-naphthylmethyl)cyclopropyl]phenyl]triazol-4-yl]phenyl] carbamate hydrochloride]"

# From patent publication US9944589B2, “Cycloproplyamine derivatives useful as inhibitors of histone demethylases KDM1A” (Istituto Europeo de Oncologia S.r.L., priority 2012, dated 2018)
